Assay results taken from patent US20250222136A1, “GENE EDITING SYSTEM FOR TREATING USHER SYNDROME” (GenKOre, Inc., priority 2022, published 2025).

Columns and labels:
[1] = test system: USH2A gene (F region and R region of exon 13); assay: Indel efficiency of USH2A guide RNA expression cassettes by next generation sequencing (NGS); assay type: cell-based, human; parameters: Indel efficiency (%) Cas12f1 ver3.0 / Indel efficiency (%) Cas12f1 ver4.0 / Indel efficiency (%) Cas12f1 ver4.1: concentration or dose not given beside the values; details: for Indel efficiency (%) Cas12f1 ver3.0: scaffold Cas12f1 ver3.0 (SEQ ID NO: 315); for Indel efficiency (%) Cas12f1 ver3.0 / Indel efficiency (%) Cas12f1 ver4.1 / Indel efficiency (%) Cas12f1 ver4.0: expression cassette, NGS; for Indel efficiency (%) Cas12f1 ver4.1: scaffold Cas12f1 ver4.1 (SEQ ID NO: 317); for Indel efficiency (%) Cas12f1 ver4.0: scaffold Cas12f1 ver4.0 (SEQ ID NO: 316)
Description: A nucleotide sequence encoding the guide RNA designed based on the protospacer sequence selected in Example 2.1 was constructed into an expression cassette, which was immediately transfected to confirm indel efficiency by next generation sequencing (NGS) without the T7E1 assay. Here, the guide RNA was designed to include a U-rich tail sequence (for example, 5′-U4AU6-3′) at the 3′-end.
To confirm indel efficiency of the guide sequences of Cas12f1, a cassette containing the U6 promoter, scaffold sequence, guide sequence, and U-rich tail sequence (T4AT6) was amplified by PCR and used. The process was performed as follows.
The spacer was selected from the 20mer sequence followed by TTTA or TTTG, which are PAM of Cas12f1, and spacers whose sequences end with T were excluded. In addition, to minimize off-target effects, the spacers were designed using CRISPR RGEN TOOL by classifying them with less than 2 mismatches. In addition, the reverse complement sequence comprising a DR (direct repeat) and U-rich sequence was used as an R primer.
1% agarose gel was prepared, and the size marker and PCR products were added to the gel. Electrophoresis was performed to confirm the amplified size.
After confirming the amplified size, the gel was purified according to Experimental Example 9 to quantify the PCR products.
(§1) The day before transfection, HEK293T and ARPE19-HPV cells (80% confluency) cultured in 100 mm dishes were treated with trypsin to detach from the bottom of the dish. The detached cells were placed in 50 ml of pre-warmed medium (see Experimental Example 15 for its composition) and slowly dissolved with a pipette. 24-well plates were prepared according to the number of samples and repetitions, and 500 μl of cell suspension medium was added to each well (1/100 dilution). Then, incubation was performed overnight in a CO2 incubator at 37° C. until transfection.
(§2) The next day, when the cell confluency reached approximately 70% to 80%, 200 μl of the 500 μl medium per well was removed and the plates were placed in the incubator. 1.5 ml tubes were prepared according to the number of samples, and 200 μl of Opti-MEM was added to each tube. 1.5 μg of Cas12f1 DNA and 0.5 μg of gRNA (or a vector containing nucleic acids encoding Cas12f1 DNA and two gRNAs) were added to the tube containing Opti-MEM, and vortexed for 5 seconds (nucleic acid mixture). Then, the nucleic acid mixture and FuGENE HD were added at a ratio of 1:3, and reaction was allowed to occur at room temperature for 20 minutes (that is, in a case where the nucleic acid mixture was 2 μg, 6 μl of FuGENE HD was administered). The 24-well plate was taken out from the incubator, and 200 μl of the solution containing the nucleic acid mixture and FuGENE HD was gently added along the well wall. After shaking the plate sufficiently in an S shape, it was incubated in a CO2 incubator at 37° C. for 72 hours. After 72 hours, the cells were harvested and gDNA was extracted therefrom according to Experimental Example 8.
(§3) NGS analysis to confirm indel efficiency for the target was performed over a total of three PCR rounds.
The conditions for conducting the first PCR for each region are disclosed in Tables 20 to 29 below.

USH2A gene = assay: Indel efficiency depending on length of the guide sequence; assay type: cell-based, human; details: highest value by guide length: F16 22mer, FA12 20mer, R19 24mer, R40 20mer; ver4.1 scaffold for F16, FA12, ver4.0 for R19, R40
Description: Each guide sequence (F16, FA12, R19, R40) selected through Examples 2 and 3 was modified to have a guide sequence of 19- to 25-mer length based on the PAM adjacent to the protospacer sequence, and vectors expressing the same were produced, respectively, to compare the indel efficiency depending on a length of the guide sequence. As for the scaffold sequence, Cas12f1 ver4.1 was used for F16 and FA12, and Cas12f1 ver4.0 was used for R19 and R40, as selected in Example 2.2.
as §1, §2, §3

Molecule	Indel efficiency (%) Cas12f1 ver3.0 [1]	Indel efficiency (%) Cas12f1 ver4.1 [1]	Indel efficiency (%) Cas12f1 ver4.0 [1]	other results
UCCAUAUAUAUACAUAUAUA (expressed or natural sequence) [GUIDE-USH2A-FA12]	4.61%	1.29%		indel efficiency (USH2A gene): 72.19%
GCAUUGGUCAGUGUGUAAGA (expressed or natural sequence) [GUIDE-USH2A-R22]	6.32%	15.79%	16.03%	
ACUGUGUAGGAGACAAAGGA (expressed or natural sequence) [GUIDE-USH2A-R36]			3.06%	
ACAGUGAUGAAUGACUCACC (expressed or natural sequence) [GUIDE-USH2A-FA10]	4.41%	1.89%	1.52%	
UGUCUCGUCUAUCUUGAAUG (expressed or natural sequence) [GUIDE-USH2A-F02]	1%	0.03%	0.23%	
UAGACCCAUAUAACUCAGAG (expressed or natural sequence) [GUIDE-USH2A-R18]	0.46%			
AAUAUGCCAUACAUAUUCC (expressed or natural sequence) [GUIDE-USH2A-FA20]	2.78%	1.03%	0.58%	
UGUUCGUAUCAUCUGCAGUA (expressed or natural sequence) [GUIDE-USH2A-F03]	4.88%	9.89%	5.89%	
UAAUUCUACCACCAGCCACA (expressed or natural sequence) [GUIDE-USH2A-R26]			6.41%	
UAAUGUGUACAUAUAUCAAAAC (expressed or natural sequence) [GUIDE-USH2A-F16-22 mer]				indel efficiency (USH2A gene): 73%
GGGUGAGAACAUUUAAGAUC (expressed or natural sequence) [GUIDE-USH2A-F15]	0.55%			
AUUAUACCUUCGUGAAGCUG (expressed or natural sequence) [GUIDE-USH2A-F17]	0.02%	0.18%	0.02%	
UUUCUUUGCCUUGUAAUACC (expressed or natural sequence) [GUIDE-USH2A-F24]	0.04%		0.19%	
UAUAGAAAUACCUAGAAUUG (expressed or natural sequence) [GUIDE-USH2A-R10]	1.65%		1.20%	
CUUGCCAGAGAAGGAGUAGA (expressed or natural sequence) [GUIDE-USH2A-R19]	26.08%	9.48%	27.24%	
UAAUGUGUACAUAUAUCAAA (expressed or natural sequence) [GUIDE-USH2A-F16]	4.19%	10.78%	5.87%	
AGAGUAAGAUUGGCCCCCUA (expressed or natural sequence) [GUIDE-USH2A-F05]	0.64%	4.83%	1.48%	
CUUGCCAGAGAAGGAGUAGAACAA (expressed or natural sequence) [GUIDE-USH2A-R19-24 mer]				indel efficiency (USH2A gene): 83%
CUUAGAAAGAAGGAUGUAUA (expressed or natural sequence) [GUIDE-USH2A-R40]		8.07%	21.35%	indel efficiency (USH2A gene): 73.99%
MS2/MS3/MS4/MS5: engineered sgRNA, SEQ ID NO: 317 (nucleic acid, Engineered sgRNA with modification of MS2/MS3/MS4/MS5; misc_feature 99..118 n is a, c, g or u) guide: ACCGCUUCACUUAGAGUGAAGGUGGGCUGCUUGCAUCAGCCUAAUGUCGAGAAGUGCUUUCUUCGGAAAGUAACCCUCGAAACAAAGAAAGGAAUGCAACNNNNNNNNNNNNNNNNNNNNUUUUAUUUUUU				indel efficiency, scaffold versions compared ([1]; target sequences located in the F region): higher indel efficiency than ver4.0
MS2/MS3/MS4: engineered sgRNA, SEQ ID NO: 316 (nucleic acid, Engineered sgRNA with modification of MS2/MS3/MS4; misc_feature 128..147 n is a, c, g or u) guide: ACCGCUUCACCAAAAGCUGUCCCUUAGGGGAUUAGAACUUGAGUGAAGGUGGGCUGCUUGCAUCAGCCUAAUGUCGAGAAGUGCUUUCUUCGGAAAGUAACCCUCGAAACAAAGAAAGGAAUGCAACNNNNNNNNNNNNNNNNNNNNUUUUAUUUUUU				indel efficiency of cassette compared with Cas12f1 ver3.0 cassette ([1]; USH2A F and R region guide sequences): improved in most samples; indel efficiency, scaffold versions compared ([1]; target sequences located in the R region): higher indel efficiency than ver4.1
